Consider 4 compounds from US20230218608A1, “NEW STRATEGY FOR TREATING PANCREATIC CANCER” (INSERM (INSTITUT NATIONAL DE LA SANTÉ ET DE LA RECHERCHE …, priority 2020, published 2023).

Structures are written as SMILES.

One assay relates to PDAC cells. The experiment in a line: Dose-response viability experiments (Crystal violet viability assay). The format is cell-based, human. Conditions: 72 h; for Relative cell viability, mean of the treated cells: compared to non-treated cells. The procedure: We used 21 PDAC primary cells obtained from Patient-Derived Xenografts (PDX) from the PaCaOmics cohort, in which patients were included under the Paoli-Calmettes Institute clinical trial number 2011-A01439-32. Consent forms of informed patients were collected and registered in a central database. PDAC cells were obtained and maintained in serum-free ductal media (SFDM) as described, and incubated at 37° C. in a 5% CO2 incubator. Cell lines were monthly tested for Mycoplasma contamination and found to be negative.
We tested the sensitivity of PDAC cells to three different drugs targeting the FAO pathway: Etomoxir, Perhexiline, and Trimetazidine (all provided by Sigma-Aldrich, Saint-Quentin Fallavier, France), and to the standard chemotherapy Gemcitabine (Gemzar, Eli Lilly & Co).
Cells were seeded in 96-well plates (5,000 cells per well) and 24 h later, the medium was supplemented with increasing concentrations of the drugs in triplicates. For the combination treatment, we used Perhexiline at 5 μM with increasing doses of Gemcitabine. Cell viability was determined 72 h later by Crystal violet viability assay, which is independent from cell metabolism. Briefly, cells were fixed in Glutaraldehyde 1%, washed twice with PBS, stained with crystal violet 0.1% for 10 min, and then washed three times with PBS. Crystals were solubilized in SDS 1%, and absorbance was measured at 600 nm using an Epoch-Biotek spectrophotometer.

The next assay relates to four PDAC xenografts. The experiment in a line: Subcutaneous PDAC xenografts, tumor growth (four models overall). Conditions: Perhexiline 5 mg/kg IP every other day, one month. The class given is in vivo, mice. The procedure:
(§1) We assessed the FAO inhibition impact in vivo using the drug Perhexiline in combination with Gemcitabine. We performed subcutaneous xenografts in immunodeficient mice using four different primary PDAC cells. Recipient mice were 6-week-old female Swiss nude mice Crl:Nu(lco)-Foxn1nu purchased from Charles River, France. To obtain the xenografts, subcutaneous tumors from initial mouse donors were removed and finely minced with a scalpel. Then, 150 mg of tumor's pieces were mixed with 50 μl of Matrigel and implanted with a trocar (10 Gauge) in the subcutaneous space of anesthetized mice. Tumor volume was measured twice per week using a digital caliper and using the formula V=lenght×(width)/2. When tumor volume reached 200 mm^3, mice were randomly assigned in a treatment scheme:
(§2) a) Gemcitabine: 120 mg/kg twice a week
(§3) b) Perhexiline: 5 mg/kg every other day
(§4) c) Combination treatment: Gemcitabine plus Perhexiline with the same described indications
(§5) d) Vehicle: PBS in the case of Gemcitabine treatment controls and 3% DMSO in PBS for combination treatment controls.
(§6) Mice were treated by intraperitoneal injection during one month, and mice in which tumor volume reached 1.5 cm^3 during this period were ethically sacrificed and tumors removed.

A further assay relates to four PDAC cells. The assay can be described thus: AnnexinV/PI apoptosis assay (flow cytometry). The class given is cell-based, human. Conditions: Perhexiline 7 μM, 72 h. As to the method:
Cells were seeded in 6-well plates in duplicates (150 000 cells per well) and the day after, the corresponding treatment was administered. We treated four PDAC cells with 7 μM of Perhexiline for 72 h (FIG. 5A), and in combination with 1 μM of Gemcitabine for 24 h for the PDAC084T cells. After the treatment period, cells were detached with Accutase, and resuspended in Annexin V-binding buffer (Biolegend). Cell death was determined using the Annexin V and Propidium Iodide (PI) staining (Biolegend), for apoptosis and necrosis, respectively. Ten thousand events per sample were acquired in a MAC SQuant-VYB (Miltenyi Biotec) and data analysis was done with the FlowJo software.

The next assay relates to PDAC084T cells. The experiment in a line: Real-time metabolic analysis (Seahorse XF Cell Mito Stress Test). The format is cell-based, human. Conditions: Perhexiline 10 μM, 6 h. The procedure: We tested the impact of […], and the combination treatment (6 hours) on the mitochondrial respiration in PDAC084T cells. Measurements were performed using the Seahorse Bioscience XFe24 Extracellular Flux Analyzer (Agilent). Sixteen hours before the assay, cells at exponential growth were seeded into Seahorse 24-well plates and cultured at 37° C. with 5% CO2. Six hours before the assay, the media was replaced with vehicle DMSO (0.01%), Gemcitabine (1 μM), Perhexiline (10 μM), or the combination of the two drugs. After 6 h treatment, the media was replaced with OXPHOS assay medium (DMEM without phenol red [Sigma-Aldrich reference D5030], 143 mM NaCl, 2 mM glutamine, 1 mM sodium pyruvate and 10 mM glucose, pH 7.4) and the plate was pre-incubated for 1 h at 37° C. in a non-CO2 incubator. OCR was measured under basal conditions, and then after sequential injections of Oligomycin at 1 μM, carbonyl cyanide-p-trifluoromethox-[…]-hydrazon (FCCP, the concentration was optimized for each cell line), and 0.5 μM of Rotenone plus Antimycin A. Oligomycin is a respiratory Complex V inhibitor that allows to calculate ATP production by mitochondria, and FCCP is an uncoupling agent allowing the determination of the maximal respiration and the spare capacity. […]

The test system of a further assay is PDAC012T xenograft. The experiment in a line: Subcutaneous PDAC xenograft, tumor growth. The format is in vivo, mice. Conditions: one month IP; Gemcitabine 120 mg/kg twice a week; intermediate responder. The procedure:
as §1, §2, §3, §4, §5, §6

The subject of a further assay is PDAC032T xenograft. The assay can be described thus: Subcutaneous PDAC xenograft, tumor growth. The format is in vivo, mice. Conditions: one month IP; Gemcitabine 120 mg/kg twice a week; low responder. As to the method: as §1, §2, §3, §4, §5, §6
Another assay deals with PDAC084T xenograft. The experiment in a line: Subcutaneous PDAC xenograft, tumor growth. The format is in vivo, mice. Conditions: one month IP; Gemcitabine 120 mg/kg twice a week, Perhexiline 5 mg/kg every other day; high responder. As to the method: as §1, §2, §3, §4, §5, §6

Consider `CCOC(=O)[C@@]1(CCCCCCOc2ccc(Cl)cc2)CO1` [Etomoxir], for which, in the assay with PDAC cells (Etomoxir 62.5 μM), the “Relative cell viability, mean of the treated cells” value stood at 0.75.

Take `COc1ccc(CN2CCNCC2)c(OC)c1OC` [Trimetazidine]: the Relative cell viability entry in the assay on PDAC cells (Trimetazidine 62.5 μM, compared with non-treated cells) is listed as “no effect in any cell”.

`C1CCC(C(CC2CCCCN2)C2CCCCC2)CC1` (stereo not shown) [Perhexiline]: the Cell viability result in the assay on PDAC cells (Perhexiline 5 μM alone) is reported as “no impacts cell viability”. For the same compound, in the assay on PDAC cells (Perhexiline 7 μM), the “Relative cell viability, mean of the treated cells” value amounted to 0.72. The “Tumor growth compared with vehicle-injected mice” value in the assay with four PDAC xenografts is recorded as “doesn't have any impact on tumor growth”. Also, the “Cell death (apoptosis induction)” value in the assay on four PDAC cells is “apoptotic inductor”. Besides, the “Decrease of mitochondrial respiration (OCR)” value in the assay with PDAC084T cells is “about 50%”.

As to `Nc1ccn([C@@H]2O[C@H](CO)[C@@H](O)C2(F)F)c(=O)n1` [Gemcitabine], the Tumor growth entry with PDAC012T xenograft is recorded as “arresting the tumor growth”; with PDAC032T xenograft, “induces tumor regression”; with PDAC084T xenograft it was “arresting the tumor growth”.
